41 molecules from patent US9296693B2, “Acyl piperidine inhibitors of soluble epoxide hydrolase” (The Regents of the University of California, priority 2010, dated 2016) can be followed below.

One assay has as its target murine sEH (Mus musculus (Mouse), UniProt P34914). Kind of assay: fluorescent based IC50 assay (CMNPC substrate), recombinant murine sEH. It is filed as biochemical. Particulars: homogenous recombinant murine sEH 1 nM, CMNPC 5 μM, pH 7.0, 30° C., average of three replicates.
In a further assay the target is Human sEH (Homo sapiens (Human), UniProt P34913). Briefly: fluorescent based IC50 assay (CMNPC substrate), recombinant human sEH.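 Note: enzyme preincubated with inhibitor for 5 min before adding substrate, in 25 mM Bis-Tris/HCl buffer supplemented with 0.1 mg/mL BSA.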
The mark [1] stands for this setting: read-out: IC50 (nM) Human, homogenous recombinant human sEH 1 nM, CMNPC 5 μM, pH 7.0, 30° C., average of three replicates.

Several values for one entry are separate records, joined by “and”; a condition that tells them apart may be missing. Equal entries are not always repeated. Where two headings read alike, the source gives them in different places. Bounds are passed on as bounds.

murine sEH, sequence (P34914 whole entry): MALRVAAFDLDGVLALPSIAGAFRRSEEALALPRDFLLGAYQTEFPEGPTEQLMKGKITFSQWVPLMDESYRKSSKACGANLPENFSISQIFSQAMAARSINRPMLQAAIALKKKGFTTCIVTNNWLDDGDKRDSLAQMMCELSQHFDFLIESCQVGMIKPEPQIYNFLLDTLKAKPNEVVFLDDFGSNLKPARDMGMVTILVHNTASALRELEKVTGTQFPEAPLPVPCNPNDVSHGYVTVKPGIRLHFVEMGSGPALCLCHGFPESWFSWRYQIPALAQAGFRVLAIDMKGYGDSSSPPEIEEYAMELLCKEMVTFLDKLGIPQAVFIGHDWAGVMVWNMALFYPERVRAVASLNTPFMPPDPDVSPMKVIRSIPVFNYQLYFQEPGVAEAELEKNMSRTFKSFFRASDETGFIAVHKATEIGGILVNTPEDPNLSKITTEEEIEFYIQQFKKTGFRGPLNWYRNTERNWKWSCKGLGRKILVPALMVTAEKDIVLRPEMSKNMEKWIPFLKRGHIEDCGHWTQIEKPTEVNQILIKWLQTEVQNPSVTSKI
Human sEH, sequence (P34913 whole entry): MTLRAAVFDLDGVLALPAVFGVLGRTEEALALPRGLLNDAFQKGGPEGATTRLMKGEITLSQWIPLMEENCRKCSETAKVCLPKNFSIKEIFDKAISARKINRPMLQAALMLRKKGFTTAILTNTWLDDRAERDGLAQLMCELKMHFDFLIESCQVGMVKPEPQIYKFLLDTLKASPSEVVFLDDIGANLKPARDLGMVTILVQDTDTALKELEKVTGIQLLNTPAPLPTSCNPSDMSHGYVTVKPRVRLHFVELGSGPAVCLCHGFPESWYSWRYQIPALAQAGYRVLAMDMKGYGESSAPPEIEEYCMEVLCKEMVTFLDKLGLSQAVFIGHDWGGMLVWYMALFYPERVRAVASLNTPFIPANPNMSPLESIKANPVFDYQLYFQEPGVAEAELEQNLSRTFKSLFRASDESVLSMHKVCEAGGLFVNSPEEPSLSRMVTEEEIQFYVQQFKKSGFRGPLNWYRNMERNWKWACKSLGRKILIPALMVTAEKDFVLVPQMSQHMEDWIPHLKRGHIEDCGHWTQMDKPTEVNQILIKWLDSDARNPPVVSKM

In the case of `CCC(=O)N1CCC(NC(=O)NC23CC4CC(CC(C4)C2)C3)CC1` [Compound 2, 1-(1-Adamantyl)-3-(1-propionylpiperidin-4-yl)urea], the IC50 was 1.2 nM at murine sEH and 2.8 nM on Human sEH (setting [1]).
Taken in the same sequence, the figures for `CCC(=O)N1CCC(NC(=O)NC2CCCCCC2)CC1` [Compound 3, 1-Cycloheptyl-3-(1-propionylpiperidin-4-yl)urea] were 0.9 nM and 3.9 nM.
Consider `CCC(=O)N1CCC(NC(=O)NC2CCCCC2)CC1` [Compound 4, 1-Cyclohexyl-3-(1-propionylpiperidin-4-yl)urea], for which the IC50 on murine sEH turned out to be 3.5 nM; at Human sEH (setting [1]), 12 nM.
Regarding `CCCCCCCCNC(=O)NC1CCN(C(=O)CC)CC1` [Compound 5, 1-Octyl-3-(1-propionylpiperidin-4-yl)urea], the IC50 turned out to be 0.4 nM on murine sEH and 3.2 nM at Human sEH (setting [1]).
Taken in the same sequence, the figures for `CCC(=O)N1CCC(NC(=O)Nc2ccccc2)CC1` [Compound 7, 1-Phenyl-3-(1-propionylpiperidin-4-yl)urea] were 49 nM and 130 nM.
Taken in the same sequence, the figures for `CCC(=O)N1CCC(NC(=O)Nc2ccc3ccccc3c2)CC1` [Compound 8, 1-(Naphthalen-2-yl)-3-(1-propionylpiperidin-4-yl)urea] were 4.2 nM and 3 nM.
For `CCC(=O)N1CCC(NC(=O)Nc2ccccc2C)CC1` [Compound 10, 1-(1-Propionylpiperidin-4-yl)-3-o-tolylurea], the IC50 at murine sEH is > 5000 nM and 5100 nM; on Human sEH (setting [1]) it was 1700 nM.
As for `CCC(=O)N1CCC(NC(=O)Nc2cccc(C)c2)CC1` [Compound 11], the results for the IC50 on murine sEH and at Human sEH (setting [1]) were 8.7 nM and 40 nM, respectively.
Regarding `CCC(=O)N1CCC(NC(=O)Nc2ccc(CC)cc2)CC1` [Compound 13, 1-(4-Ethylphenyl)-3-(1-propionylpiperidin-4-yl)urea], the 50% inhibitory concentration (IC50) stood at 1.3 nM on murine sEH and 8.3 nM on Human sEH (setting [1]).
Taken in the same sequence, the figures for `CCC(=O)N1CCC(NC(=O)Nc2ccc(C(C)C)cc2)CC1` [Compound 14, 1-(4-Isopropylphenyl)-3-(1-propionylpiperidin-4-yl)urea] were 3.3 nM and 2.8 nM.
The matching figures for `CCC(=O)N1CCC(NC(=O)Nc2ccc(OC)cc2)CC1` [Compound 15, 1-(4-Methoxyphenyl)-3-(1-propionylpiperidin-4-yl)urea]: 8.7 nM and 87 nM.
Taken in the same sequence, the figures for `CCC(=O)N1CCC(NC(=O)Nc2ccc(Oc3ccccc3)cc2)CC1` [Compound 16, 1-(4-Phenoxyphenyl)-3-(1-propionylpiperidin-4-yl)urea] were 0.4 nM and 3.5 nM.
`CCC(=O)N1CCC(NC(=O)Nc2cc(OC)c(OC)c(OC)c2)CC1` [Compound 18, 1-(1-Propionylpiperidin-4-yl)-3-(3,4,5-trimethoxyphenyl)urea]: the IC50 is > 5000 nM and 25000 nM on murine sEH; greater than 5000 nM at Human sEH (setting [1]).
`CCC(=O)N1CCC(NC(=O)Nc2ccc(N3CCOCC3)cc2)CC1` [Compound 19, 1-(4-Morpholinophenyl)-3-(1-propionylpiperidin-4-yl)urea]: the half-maximal inhibitory concentration (IC50) at murine sEH turned out to be 650 nM; at Human sEH (setting [1]), 2000 nM.
Consider `CCC(=O)N1CCC(NC(=O)Nc2ccc([N+](=O)[O-])cc2)CC1` [Compound 20, 1-(4-Nitrophenyl)-3-(1-propionylpiperidin-4-yl)urea], for which, on murine sEH, the IC50 came out at 97 nM.
As for `CCC(=O)N1CCC(NC(=O)Nc2ccc(C(=O)O)cc2)CC1` [Compound 22, 4-(3-(1-Propionylpiperidin-4-yl)ureido)benzoic acid], the IC50 is 1000 nM on murine sEH and 330 nM on Human sEH (setting [1]).
`CCC(=O)N1CCC(NC(=O)Nc2ccc(O)cc2)CC1` [Compound 23, 1-(4-Hydroxyphenyl)-3-(1-propionylpiperidin-4-yl)urea]: the IC50 on murine sEH amounted to 1400 nM.
Consider `CCC(=O)N1CCC(NC(=O)Nc2ccc(Cl)cc2)CC1` [Compound 25, 1-(4-Chlorophenyl)-3-(1-propionylpiperidin-4-yl)urea], for which the IC50 stood at 23 nM at murine sEH and 10 nM at Human sEH (setting [1]).
The matching figures for `CCC(=O)N1CCC(NC(=O)Nc2ccc(Br)cc2)CC1` [Compound 26, 1-(4-Bromophenyl)-3-(1-propionylpiperidin-4-yl)urea]: 15 nM and 3.6 nM.
The matching figures for `CCC(=O)N1CCC(NC(=O)Nc2ccc(I)cc2)CC1` [Compound 27, 1-(4-Iodophenyl)-3-(1-propionylpiperidin-4-yl)urea]: 1.4 nM and 7.2 nM.
Taken in the same sequence, the figures for `CCC(=O)N1CCC(NC(=O)Nc2cccc(F)c2)CC1` [Compound 28, 1-(3-Fluorophenyl)-3-(1-propionylpiperidin-4-yl)urea] were 20 nM and 39 nM.
As to `CCC(=O)N1CCC(NC(=O)Nc2ccccc2F)CC1` [Compound 29, 1-(2-Fluorophenyl)-3-(1-propionylpiperidin-4-yl)urea], the results for the half-maximal inhibitory concentration (IC50) at murine sEH and at Human sEH (setting [1]) were 780 nM and 300 nM, respectively.
Taken in the same sequence, the figures for `CCC(=O)N1CCC(NC(=O)Nc2cccc(Cl)c2)CC1` [Compound 30, 1-(3-Chlorophenyl)-3-(1-propionylpiperidin-4-yl)urea] were 6.6 nM and 21 nM.
The matching figures for `CCC(=O)N1CCC(NC(=O)Nc2ccccc2Cl)CC1` [Compound 31, 1-(2-Chlorophenyl)-3-(1-propionylpiperidin-4-yl)urea]: 2900 nM and 1100 nM.
As for `CCC(=O)N1CCC(NC(=O)Nc2ccc(Cl)c(Cl)c2)CC1` [Compound 32, 1-(3,4-Dichlorophenyl)-3-(1-propionylpiperidin-4-yl)urea], the IC50 at murine sEH was determined as 0.6 nM; on Human sEH (setting [1]), 3.4 nM.
Taken in the same sequence, the figures for `CCC(=O)N1CCC(NC(=O)Nc2cc(Cl)cc(Cl)c2)CC1` [Compound 33, 1-(3,5-Dichlorophenyl)-3-(1-propionylpiperidin-4-yl)urea] were 1 nM and 0.4 nM.
In the case of `CCC(=O)N1CCC(NC(=O)Nc2c(Cl)cccc2Cl)CC1` [Compound 34, 1-(2,6-Dichlorophenyl)-3-(1-propionylpiperidin-4-yl)urea], the 50% inhibitory concentration (IC50) is > 5000 nM and 38000 nM at murine sEH; greater than 5000 nM on Human sEH; greater than 50000 nM on Human sEH (setting [1]).
In the case of `CCC(=O)N1CCC(NC(=O)Nc2ccc(Cl)c(C(F)(F)F)c2)CC1` [Compound 35, 1-(4-Chloro-3-(trifluoromethyl)phenyl)-3-(1-propionylpiperidin-4-yl)urea], the IC50 at murine sEH is 2.3 nM; on Human sEH (setting [1]) it was 4.1 nM.
Regarding `CCC(=O)N1CCC(NC(=O)Nc2ccc(C(F)(F)F)cc2)CC1` [Compound 36, 1-(1-Propionylpiperidin-4-yl)-3-(4-(trifluoromethyl)phenyl)urea], the IC50 at murine sEH was 6.5 nM.
Take `CCC(=O)N1CCC(NC(=O)Nc2cccc(C(F)(F)F)c2)CC1` [Compound 37, 1-(1-Propionylpiperidin-4-yl)-3-(3-(trifluoromethyl)phenyl)urea]: the IC50 at murine sEH was determined as 8.8 nM; on Human sEH (setting [1]), 17 nM.
Taken in the same sequence, the figures for `CCC(=O)N1CCC(NC(=O)Nc2ccc(C(F)(C(F)(F)F)C(F)(F)F)cc2)CC1` [Compound 38, 1-(4-Perfluoroisopropylphenyl)-3-(1-propionylpiperidin-4-yl)urea] were 0.7 nM and 0.4 nM.
Take `CCC(=O)N1CCC(NC(=O)Nc2ccc(C(F)(C(F)(F)F)C(F)(F)F)cc2C)CC1` [Compound 39, 1-(2-Methyl-4-perfluoroisopropylphenyl)-3-(1-propionylpiperidin-4-yl)urea]: the IC50 was 28 nM on murine sEH and 17 nM at Human sEH (setting [1]).
With `O=C(Nc1ccc(OC(F)(F)F)cc1)NC1CCN(C(=O)c2ccncc2)CC1` [Compound 47, 1-(1-Isonicotinoylpiperidin-4-yl)-3-(4-(trifluoromethoxy)phenyl)urea], the IC50 at murine sEH turned out to be 1.3 nM; at Human sEH (setting [1]), 0.7 nM.
The matching figures for `O=C(Nc1ccc(OC(F)(F)F)cc1)NC1CCN(C(=O)c2ccc(Cl)nc2)CC1` [Compound 48, 1-(1-(6-Chloronicotinoyl)piperidin-4-yl)-3-(4-(trifluoromethoxy)phenyl) urea]: 0.7 nM and 0.6 nM.
The matching figures for `O=C(Nc1ccc(OC(F)(F)F)cc1)NC1CCN(C(=O)Cc2ccccn2)CC1` [Compound 49, 1-(((Pyridin-2-yl)acetyl)piperidin-4-yl)-3-(4-(trifluoromethoxy)phenyl) urea]: 5 nM and 3.1 nM.
As to `CC(=O)N1CCN(CC(=O)N2CCC(NC(=O)Nc3ccc(OC(F)(F)F)cc3)CC2)CC1` [Compound 51, 1-(1-((4-Acetylpiperazin-1-yl)acetyl)piperidin-4-yl)-3-(4-(trifluoromethoxy)phenyl)urea], the IC50 was found to be 1.2 nM at murine sEH and 0.5 nM on Human sEH (setting [1]).
Turning to `O=C(Nc1ccc(OC(F)(F)F)cc1)NC1CCN(C(=O)C2CC2)CC1` [Compound 52, 1-(1-(Cyclopropanecarbonyl)piperidin-4-yl)-3-(4-(trifluoromethoxy)phenyl) urea], the IC50 on murine sEH is 0.4 nM.
On the same count and under the same terms, then `O=C(Nc1ccc(OC(F)(F)F)cc1)NC1CCN(C(=O)C(F)(F)F)CC1` [Compound 53, 1-(1-(Trifluoroacetyl)piperidin-4-yl)-3-(4-(trifluoromethoxy)phenyl) urea], with 0.4 nM.
For `CS(=O)(=O)N1CCC(NC(=O)Nc2ccc(OC(F)(F)F)cc2)CC1` [Compound 55, 1-(1-(Methylsulfonyl)piperidin-4-yl)-3-(4-(trifluoromethoxy)phenyl)urea], the half-maximal inhibitory concentration (IC50) at murine sEH is 2 nM; at Human sEH (setting [1]), 2.9 nM.
The matching figures for `CCS(=O)(=O)N1CCC(NC(=O)Nc2ccc(OC(F)(F)F)cc2)CC1` [Compound 56, 1-(1-(Ethylsulfonyl)piperidin-4-yl)-3-(4-(trifluoromethoxy)phenyl)urea]: 0.7 nM and 0.4 nM.
Turning to `Cc1ccc(S(=O)(=O)N2CCC(NC(=O)Nc3ccc(OC(F)(F)F)cc3)CC2)cc1` [Compound 58, 1-(1-Tosylpiperidin-4-yl)-3-(4-(trifluoromethoxy)phenyl)urea], at murine sEH, the IC50 is 0.4 nM.

A word on the IC50: it is the point on the concentration scale where inhibition reaches its midpoint.
